A short description of data set [1]: Thermal stability study under accelerated storage conditions (HPLC assay, doxorubicinone quantity, total impurities). The data set is classed as physicochemical. The method, then: The type II crystalline epirubicin hydrochloride obtained in Example 1 and type I crystalline epirubicin hydrochloride obtained in reference Example 3 were each kept at a temperature 40° C. for six months, thereby simulating accelerated storage conditions. The thermal stability was investigated and measured by studying the following parameters: (1) assay (HPLC method), (2) doxorubicinone quantity (doxorubicinone, an aglycone of epirubicin, is the major epirubicin degradation product), and (3) total impurities.

A short description of data set [2]: Powder X-ray diffraction of commercial batches after accelerated storage. The data set is classed as physicochemical. The note with it: 3 commercial batches, 6 months of accelerated storage conditions (40° C.). As for the experimental part: In this example, powder X-ray diffraction spectra of crystalline epirubicin hydrochloride of type I and type II were obtained. Powder X-ray diffraction spectra were measured using a Rigaku Cu Anode X-ray Diffractometer (MiniFlex). The conditions for analysis of the samples was as follows:
FIGS. 16, 18 and 20 illustrate the X-Ray Diffraction spectra of the mentioned above 3 commercial batches, undergone 6 months of Accelerated storage conditions (40° C.).

Consider `COc1cccc2c1C(=O)c1c(O)c3c(c(O)c1C2=O)C[C@@](O)(C(=O)CO)C[C@@H]3OC1CC(N)C(O)C(C)O1.Cl` (stereo partly drawn) [epirubicin hydrochloride], for which, in data set [1] (concluded from the 40° C. storage study, compared with type I), the shelf life entry was “longer than the shelf life of type I crystalline epirubicin hydrochloride”. Moreover, the thermal stability entry in data set [1] (kept at 40° C. for six months, compared with type I crystalline epirubicin hydrochloride) is “much greater thermal stability than type I crystalline epirubicin hydrochloride”. Further, the “thermal stability by X-Ray Diffraction spectra” value in data set [2] was “thermally stable”.
